Counter-ions that a name gives are not always drawn.

Sequence of Myc-GyrB-FGFR fusion protein (P11362 478-767 limits assumed): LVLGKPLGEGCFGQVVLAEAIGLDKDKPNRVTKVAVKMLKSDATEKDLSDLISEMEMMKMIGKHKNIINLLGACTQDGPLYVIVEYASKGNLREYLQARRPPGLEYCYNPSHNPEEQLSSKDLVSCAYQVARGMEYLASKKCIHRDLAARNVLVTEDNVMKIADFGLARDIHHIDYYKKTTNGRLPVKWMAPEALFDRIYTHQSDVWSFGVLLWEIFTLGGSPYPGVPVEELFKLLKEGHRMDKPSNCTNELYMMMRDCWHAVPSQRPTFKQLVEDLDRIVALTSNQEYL

The target of the first experiment is T1, flkGST (Homo sapiens, UniProt P35968).
T1 construct: GST
T1 sequence (P35968 786-1356 limits assumed): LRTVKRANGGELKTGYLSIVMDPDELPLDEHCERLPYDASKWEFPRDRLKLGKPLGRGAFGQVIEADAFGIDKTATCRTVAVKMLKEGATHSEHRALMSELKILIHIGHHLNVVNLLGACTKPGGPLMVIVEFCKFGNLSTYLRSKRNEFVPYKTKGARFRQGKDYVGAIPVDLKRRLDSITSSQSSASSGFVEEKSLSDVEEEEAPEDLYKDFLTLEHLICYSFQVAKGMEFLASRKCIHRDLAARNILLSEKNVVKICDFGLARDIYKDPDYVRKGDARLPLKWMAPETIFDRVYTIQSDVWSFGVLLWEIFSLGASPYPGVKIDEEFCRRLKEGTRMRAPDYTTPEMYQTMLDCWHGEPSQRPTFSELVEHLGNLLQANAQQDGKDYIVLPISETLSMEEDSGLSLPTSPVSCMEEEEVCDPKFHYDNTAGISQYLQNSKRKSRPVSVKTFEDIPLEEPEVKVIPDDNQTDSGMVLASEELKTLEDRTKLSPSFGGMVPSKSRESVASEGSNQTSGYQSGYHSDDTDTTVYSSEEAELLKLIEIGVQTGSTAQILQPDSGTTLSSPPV
The experiment is described as follows: bio flkGST assay. Type of experiment: biochemical.
Conditions: not given
Turning to `COc1ccc(/C=C2/C(=O)Nc3ccc(F)cc32)cc1C1CCCC1` [Example 11, 3-(3-Cyclopentyl-4-methoxybenzylidene)-5-fluoro-1,3-dihydroindol-2-one], the 50% inhibitory concentration (IC50) – broadly, the concentration that gives 50% inhibition – amounted to 24.1 µM.

The next experiment has as its target T2, src protein kinase (Gallus gallus, UniProt P00523).
T2 construct: host or cells: Schizosaccharomyces pombe SP200
The experiment is described as follows: Biochemical SRC assay (phosphorylation of biotinylated peptide). The note with it: read-out: bio src IC50.
Method: This assay is used to determine src protein kinase activity measuring phosphorylation of a biotinylated peptide as the readout.
Yeast transformed with src (Sugen, Inc., Redwood City, Calif.). • b. Cell lysates: Yeast cells expressing src are pelleted, washed once with water, re-pelleted and stored at −80° C. until use. • c. N-terminus biotinylated [sequence] is prepared by standard procedures well known to those skilled in the art. • d. DMSO: Sigma, St. Louis, Mo. • e. […] Vecastain ELITE ABC reagent: Vector, Burlingame, Calif. • h. […] S. Pombe strain SP200 (h-s leul.32 ura4 ade210) is grown as described and transformations are pRSP expression plasmids are done by the lithium acetate method (Superti-Furga, supra). Cells are grown in the presence of 1 μM thiamine to repress expression from the nmtl promoter or in the absence of thiamine to induce expression. • i. […] Turbo TMB-ELISA peroxidase substrate: Pierce Chemical.
Buffer Solutions • a. PBS (Dulbecco's Phosphate-Buffered Saline): GIBCO PBS, GIBCO Cat. #450-1300EB. • b. Blocking Buffer: 5% Non-fat milk (Carnation) in PBS. • c. Carbonate Buffer: Na2CO4 from Fischer, Cat. # S495, make up 100 mM stock solution. • d. Kinase Buffer: 1.0 ml (from 1M stock solution) MgCl2, 0.2 ml (from a 1M stock solution) MnCl2, 0.2 ml (from a 1M stock solution) DTT, 5.0 ml (from a 1M stock solution) HEPES, 0.1 ml TX-100, bring to 10 ml total volume with MilliQ H2O. • e. […] NaCl: Fischer Cat. # S271-10, Make up 5M stock solution with MilliQ H2O. • i. […] MgCl2: Fischer Cat. # M33-500, make up 1M stock solution with MilliQ H2O. • k. […] MnCl2: Fischer Cat. # M87-100, make up 1M stock solution with MilliQ H2O. • n. DTT: -Fischer Cat. # BP172-5. • o. […] Kinase Reaction Mixture: Amount per assay plate (100 wells): 1.0 ml Kinase Buffer, 200 λg GST-ζ, bring to final volume of 8.0 ml with MilliQ H2O. • q. […] Then add 1 drop of reagent B. Put tube on orbital shaker at room temperature and mix for 30 minutes.
Preparation of src Coated ELISA Plate. • 1. Coat ELISA plate with 0.5 μg/well anti-src mab in 100 μl of pH 9.6 sodium carbonate buffer, hold at 40° C. overnight. • 2. Wash wells once with PBS. • 3. […] Wash plate 5× with PBS. • 5. Add 10 μg/well of src transformed yeast lysates diluted in Lysis Buffer (0.1 ml total volume per well). (Amount of lysate may vary between batches.) Shake plate for 20 minutes at room temperature.
Preparation of Phosphotyrosine Antibody-coated ELISA Plate. • 1. 4G10 plate: coat 0.5 μg/well 4G10 in 100 μl PBS overnight at 4° C. and block with 150 μl of 5% milk in PBS for 30 minutes at room temperature.
Kinase Assay Procedure. • 1. Remove unbound proteins from plates and wash plates 5× with PBS. • 2. […] Wash plate 5× with TBST. • 10. Incubate with Vectastain ELITE ABC reagent (100 μl/well) for 30 min. at room temperature. • 11. Wash the wells 5× with TBST. • 12. Develop with Turbo TMB.
For `CNS(=O)(=O)c1ccc2c(c1)C(=Cc1[nH]c3ccccc3c1C)C(=O)N2` (racemic) [Example 154, 3-(3-Methyl-1H-indol-2-ylmethylene)-2-oxo-2,3-dihydro-1H-indole-5-sulfonic acid methylamide], the IC50 is more than 100 µM.
Consider `Cc1c(/C=C2\C(=O)Nc3ccc(C(=O)O)cc32)[nH]c2ccccc12` [Example 156, 3-(3-Methyl-1H-indol-2-ylmethylene)-2-oxo-2,3-dihydro-1H-indole-5-carboxylic acid (piperidine salt)], for which the IC50 was found to be 0.15 µM.

The next experiment addresses Myc-GyrB-FGFR fusion protein (Homo sapiens, UniProt P11362). Briefly: Biochemical FGFR assay (ELISA). The note with it: read-out: bio fgfR1 IC50.
Method: This assay measures in vitro kinase activity of the Myc-GyrB-FGFR fusion protein using ELISA.
Materials and Reagents • 1. HNTG
PBS (Dulbecco's Phosphate-Buffered Saline, Gibco Catalog # 450-1300EB). • 3. Blocking Buffer. • 4. Kinase Buffer.
Working solution: 100 mM in ethanol. • 6.
ABTS Solution. • 10. Hydrogen peroxide 30% solution ( Fisher Catalog # H325). • 11. ABTS/H2O2. • 12. 0.2 M HCl. • 13.
Prepare 1.0 mM solution in MilliQ H2O, adjust pH to 7.2 with HCl. • 14.
Prepare 5 M solution in MilliQ H2O. • 15. MgCl, (Fisher Cat. No. M33-500).
Prepare 1 M solution in MilliQ H2O. • 16. HEPES (Fisher Cat. No. BP310-500).
Prepare 1 M solution in MilliQ H2O, adjust pH to 7.5, sterile filter. • 17. TBST Buffer. • 18. Sodium Carbonate Buffer (Fisher Cat. No. S495).
Prepare 0.1 M solution in MilliQ H2O, adjust pH to 9.6 with NaOH, filter. • 19. Dithiothreitol (DTT, Fisher Cat. No. BP172-25).
Prepare 0.5 mM working solution in MilliQ H2O just prior to-use. Store at −20° C. until used, discard any leftover. • 20. MnCl2. • 21. Triton X-100. • 22. Goat α-Rabbit IgG (Cappel). • 23. Affinity purified Rabbit α GST GyrB (Biochemistry Lab. SUGEN, Inc.).
All of the following steps are conducted at room temperature unless otherwise indicated. • 1. Coat Corning 96-well ELISA plates with 2 μg Goat α-Rabbit antibody per well in Carbonate Buffer such that total well volume is 100 μl. Store overnight at 40° C. • 2. Remove unbound Goat a-Rabbit antibody by inverting plate to remove liquid. Pat plate on a paper towel to remove excess liquid and bubbles • 3.. Add 150 μl Blocking Buffer (5% Low Fat Milk in PBS) to each well. Incubate while shaking on a micro-titer plate shaker for 30 min. • 4. Wash 4× with TBST. Pat plate on a paper towel to remove excess liquid and bubbles. • 5. Add 0.5 μg Rabbit α-GyrB antibody per well. Dilute antibody in DPBS to a final volume of 100 μl per well. Incubate with shaking on a micro-titer plate shaker at room temperature for 1 hour. • 6. Wash 4× with TBST as described in step 4. • 7. Add 2 μg COS/FGFR cell lysate (Myc-GyrB-FGFR source) in HNTG to each well to give a final volume of 100 μl per well. Incubate with shaking on a micro-titer plate shaker for 1 hour. • 8. Wash 4× with TBST as described in step 4. • 9. Add 80 μl of 1× kinase buffer per well. • 10. […] Transfer 10 μ l of diluted test compound solution and control wells from polypropylene plate wells to the corresponding ELISA plate wells, incubate with shaking on a micro-titer plate shaker for 20 minutes. • 12. Add 10 μl of 70 μM ATP diluted in kinase buffer to positive control and test wells (Final ATP concentration is 7 EM/well). Add 10 μl 1× kinase buffer to negative control wells. Incubate with shaking on a micro-titer plate shaker for 15 min. • 13. Stop kinase reaction by adding 5 μl 0.5 M EDTA to all wells. • 14. Wash 4× with TBST as described in step 4. • 15. Add 100 μl biotin conjugated α-phosphotyrosine mab (b4G10) diluted in TBST to each well. Incubate with shaking on a micro-titer plate shaker for 30 minutes. • 16. Prepare Vectastain ABC reagent. […] Mix by inverting tube several times. Add 1 drop reagent B and mix again. • 17. Wash 4× with TBST as described in step 4. • 18. Add 100 μl ABC HRP reagent to each well. Incubate with shaking on a micro-titer plate shaker for 30 minutes. • 19. Wash 4× with TBST as described in step 4. • 20. Add 100 μl of ABTS/H2O2 solution to each well. • 22. Incubate 5 to 15 minutes with shaking. Remove any bubbles. • 23. If necessary stop reaction by adding 1 00 μl of 0.2M HCl/well. • 24.
Regarding `CNS(=O)(=O)c1ccc2c(c1)C(=Cc1[nH]c3ccccc3c1C)C(=O)N2` (racemic) [Example 154, 3-(3-Methyl-1H-indol-2-ylmethylene)-2-oxo-2,3-dihydro-1H-indole-5-sulfonic acid methylamide], the IC50 was more than 20 µM.
In the case of `Cc1c(/C=C2\C(=O)Nc3ccc(C(=O)O)cc32)[nH]c2ccccc12` [Example 156, 3-(3-Methyl-1H-indol-2-ylmethylene)-2-oxo-2,3-dihydro-1H-indole-5-carboxylic acid (piperidine salt)], the concentration for half-maximal inhibition (IC50) turned out to be 3.6 µM.

Another experiment deals with T3, chimeric receptor having the extra-cellular domain of EGF-R and the intra-cellular domain of Her2 (Homo sapiens, UniProt P04626).
T3 construct: fused on or other part: the same chimera
T3 sequence (P04626 676-1255 limits assumed, change not shown): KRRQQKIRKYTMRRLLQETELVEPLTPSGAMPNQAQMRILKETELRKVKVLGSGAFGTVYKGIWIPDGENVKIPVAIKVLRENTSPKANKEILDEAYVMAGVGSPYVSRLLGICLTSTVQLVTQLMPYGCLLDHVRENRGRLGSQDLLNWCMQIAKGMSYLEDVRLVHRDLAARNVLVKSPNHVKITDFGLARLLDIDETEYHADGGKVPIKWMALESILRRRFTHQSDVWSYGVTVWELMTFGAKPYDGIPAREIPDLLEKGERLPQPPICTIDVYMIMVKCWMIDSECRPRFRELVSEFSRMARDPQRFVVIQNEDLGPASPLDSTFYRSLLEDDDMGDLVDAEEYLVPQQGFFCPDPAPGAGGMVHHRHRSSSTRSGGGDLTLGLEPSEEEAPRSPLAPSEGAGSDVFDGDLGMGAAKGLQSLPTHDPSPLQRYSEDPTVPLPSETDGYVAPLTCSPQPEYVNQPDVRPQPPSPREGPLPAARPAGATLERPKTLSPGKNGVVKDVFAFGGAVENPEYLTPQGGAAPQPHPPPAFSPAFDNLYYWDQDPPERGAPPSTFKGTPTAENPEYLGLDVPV
Briefly: EGF-induced Her2-driven BrdU incorporation. In kind it is cell-based. The note with it: read-out: BrdU HER 2 driven IC50. As for the experimental part:
The cellular/catalytic assays described herein are performed in an ELISA format. The general procedure is as follows: a compound is introduced to cells expressing the test kinase, either naturally or recombinantly, for a selected period of time after which, if the test kinase is a receptor, a ligand known to activate the receptor is added. The cells are lysed and the lysate is transferred to the wells of an ELISA plate previously coated with a specific antibody recognizing the substrate of the enzymatic phosphorylation reaction. Non-substrate components of the cell lysate are washed away and the amount of phosphorylation on the substrate is detected with an antibody specifically recognizing phosphotyrosine compared with control cells that were not contacted with a test compound. The cellular/biologic assays described herein measure the amount of DNA made in response to activation of a test kinase, which is a general measure of a proliferative response. The general procedure for this assay is as follows: a compound is introduced to cells expressing the test kinase, either naturally or recombinantly, for a selected period of time after which, if the test kinase is a receptor, a ligand known to activate the receptor is added. After incubation at least overnight, a DNA labeling reagent such as Bromodeoxyuridine (BrdU) or 3H-thymidine is added. The amount of labeled DNA is detected with either an anti-BrdU antibody or by measuring radioactivity and is compared to control cells not contacted with a test compound.
EGF-Induced Her2-Driven BrdU Incorporation
Protocol • (1) Cells-are seeded at 8000 cells/well in DMEM, 10% CS, 2mM Gln in a 96-well plate. Cells are incubated overnight at 37° C. in 5% CO2. • (2) After 24 hours, the cells are washed with PBS, and then are serum starved in serum free medium (0% CS DMEM with 0.1% BSA) for 24 hours. • (3) On day 3, ligand (EGF=2 nM, prepared in DMEM with 0.1% BSA) and test compounds are added to the cells simultaneously. The negative control wells receive serum free DMEM with 0.1% BSA only, the positive control cells receive the ligand (EGF) but no test compound. Test compounds are prepared in serum free DMEM with ligand in a 96 well plate, and serially diluted for 7 test concentrations. • (4) After 20 hours of ligand activation, diluted BrdU labeling reagent (1:100 in DMEM, 0.1% BSA) is added and the cells are incubated with BrdU (final concentration=10 μM) for 1.5 hours. • (5) After incubation with labeling reagent, the medium is removed by decanting and tapping the inverted plate on a paper towel. FixDenat solution is added (50 μl/well) and the plates are incubated at room temperature for 45 minutes on a plate shaker. • (6) The FixDenat solution is thoroughly removed by decanting and tapping the inverted plate on a paper towel. Milk is added (5% dehydrated milk in PBS, 200 μ/well) as a blocking solution and the plate is incubated for 30 minutes at room temperature on a plate shaker. • (7) The blocking solution is removed by decanting and the wells are washed once with PBS. Anti-BrdU-POD solution (1:100 dilution in PBS, 1% BSA) is added (100 μl/well) and the plate is incubated for 90 minutes at room temperature on a plate shaker. • (8) The antibody conjugate is thoroughly removed by decanting and rinsing the wells 5 times with PBS, and the plate is dried by inverting and tapping on a paper towel. • (9) TMB substrate solution is added (100 μl/well) and incubated for 20 minutes at room temperature on a plate shaker until color development is sufficient for photometric detection. • (10) The absorbance of the samples are measured at 410 nm (in “dual wavelength” mode with a filter reading at 490 nm, as a reference wavelength) on a Dynatech ELISA plate reader.
Take `COc1ccc(/C=C2/C(=O)Nc3ccc(F)cc32)cc1C1CCCC1` [Example 11, 3-(3-Cyclopentyl-4-methoxybenzylidene)-5-fluoro-1,3-dihydroindol-2-one]: the IC50 came to 9.3 µM.
The same measure, in the same setting: the figure for `COc1cc(C)c(/C=C2/C(=O)Nc3ccc(F)cc32)cc1C(C)C` [Example 30, 5-Fluoro-3-(5-isopropyl-4-methoxy-2-methyl-benzylidene)-1,3-dihydroindol-2-one] is 8.1 µM; for `CC(=O)Nc1ccc2c(c1)NC(=O)/C2=C/c1ccc(OCCN2CCOCC2)c(-c2cccs2)c1` [Example 40, N-{3-[4-(2-Morpholin-4-ylethoxy)-3-thiophen-2-ylbenzylidene]-2-oxo-2,3-dihydro-1H-indol-6-yl}-acetamide] it is 22.6 µM.
The same measure, in the same setting: for `COc1cc(C)c(/C=C2/C(=O)Nc3ccc(Br)cc32)cc1C(C)C` [Example 36, 5-Bromo-3-(5-isopropyl-4-methoxy-2-methyl-benzylidene)-1,3-dihydroindol-2-one] the value was 21.4 µM.
On to `COc1ccc2c(c1)/C(=C\c1cc(C(C)C)c(OC)c(C(C)C)c1)C(=O)N2` [Example 17, 3-(3,5-Diisopropyl-4-methoxybenzylidene)-5-methoxy-1,3-dihydroindol-2-one], for which the IC50 is 5.5 µM.
With `COc1ccc(/C=C2/C(=O)Nc3ccc(CCN4CCOCC4)cc32)cc1-c1ccsc1` [Example 26, 3-(4-Methoxy-3-thiophen-3-ylbenzylidene)-5-(2-morpholin-4-yl-ethyl)-1,3-dihydroindol-2-one], the concentration for half-maximal inhibition (IC50) is more than 50 µM.
In the case of `COc1cc(C)c(C=C2C(=O)Nc3cc(NC(C)=O)ccc32)cc1C(C)C` [Example 27, N-[3-(5-Isopropyl-4-methoxy-2-methyl-benzylidene)-2-oxo-2,3-dihydro-1H-indol-6-yl]-acetamide], the IC50 amounted to 23.4 µM.
Turning to `COc1cc(C=C2C(=O)Nc3ccccc32)c(-c2ccccc2OC)cc1OC` [Example 49, 3-(4,5,2′-Trimethoxybiphenyl-2-ylmethylene)-1,3-dihydroindol-2-one], the IC50 was 9.1 µM.
On to `COc1ccc(/C=C2/C(=O)Nc3ccccc32)cc1-c1ccsc1` [Example 35, 3-(4-Methoxy-3-thiophen-3-ylbenzylidene)-1,3-dihydroindol-2-one], for which the IC50 turned out to be 13.8 µM.
As for `COc1cc(C)c(/C=C2/C(=O)Nc3ncccc32)cc1C(C)C` [Example 45, 3-(5-Isopropyl-4-methoxy-2-methylbenzylidene)-1,3-dihydro-pyrrolo[2,3-b]pyridin-2-one], the IC50 was more than 50 µM.
For `COc1cc(C)c(C=C2C(=O)Nc3ccccc32)cc1C(C)C` [Example 8, 3-(5-Isopropyl-4-methoxy-2-methylbenzylidene)-1,3-dihydroindol-2-one], the IC50 turned out to be 33.4 µM.
On to `CC1(C)CCc2cc(C=C3C(=O)Nc4ccc(Br)cc43)ccc2O1` (racemic) [Example 34, 5-Bromo-3-(2,2-dimethylchroman-6-ylmethylene)-1,3-dihydroindol-2-one], for which the IC50 was determined as 3.5 µM.
For the molecule `CCOc1cccc(-c2cc(OC)c(OC)cc2/C=C2/C(=O)Nc3ccccc32)c1` [Example 58, 3-(3′-Ethoxy-4,5-dimethoxybiphenyl-2-ylmethylene)-1,3-dihydroindol-2-one], the half-inhibitory concentration (IC50) is 13.5 µM.
On to `CC1(C)CCc2cc(/C=C3/C(=O)Nc4ccc(F)cc43)ccc2O1` [Example 23, 3-(2,2-Dimethylchroman-6-ylmethylene)-5-fluoro-1,3-dihydroindol-2-one], for which the IC50 is 27.1 µM.
`COc1c(C(C)C)cc(/C=C2/C(=O)Nc3ccc(C)cc32)cc1C(C)C` [Example 19, 3-(3,5-Diisopropyl-4-methoxybenzylidene)-5-methyl-1,3-dihydroindol-2-one]: the IC50 stood at 3.3 µM.
For the molecule `COc1ccc(/C=C2/C(=O)Nc3ccccc32)cc1C(C)C` [Example 7, 3-(3-Isopropyl-4-methoxybenzylidene)-1,3-dihydroindol-2-one], the IC50 was 16.5 µM.
On the same count and under the same terms, the figure for `COc1c(C)cc(/C=C2/C(=O)Nc3ccc(Cl)cc32)cc1C` [Example 21, 5-Chloro-3-(4-methoxy-3,5-dimethylbenzylidene)-1,3-dihydroindol-2-one] is 6.6 µM.
On the same count and under the same terms, for `COc1c(C(C)C)cc(/C=C2/C(=O)Nc3cc(O)ccc32)cc1C(C)C` [Example 4, 3-(3,5-Diisopropyl-4-methoxybenzylidene)-6-hydroxy-1,3-dihydroindol-2-one] the value was 4.4 µM; for `CCOc1cccc(-c2cc(C=C3C(=O)Nc4ccccc43)ccc2OC)c1` [Example 46, 3-(3′-Ethoxy-6-methoxybiphenyl-3-ylmethylene)-1,3-dihydroindol-2-one], 25.3 µM; for `COc1c(C(C)C)cc(/C=C2/C(=O)Nc3ccc(N)cc32)cc1C(C)C` [Example 20, 5-Amino-3-(3,5-diisopropyl-4-methoxy-benzylidene)-1,3-dihydroindol-2-one], 15.7 µM.
In the case of `COc1ccc(/C=C2/C(=O)Nc3ncccc32)cc1C1CCCC1` [Example 47, 3-(3-Cyclopentyl-4-methoxybenzylidene)-1,3-dihydropyrrolo[2,3-b]pyridin-2-one], the IC50 was more than 50 µM.

These data come from patent US6855730B2, “3-methylidenyl-2-indolinone modulators of protein kinase” (Sugen, Inc., priority 1998, dated 2005).
